This is an account of results in ChEMBL document CHEMBL4196206, “Aturanosides A and B, Glycosylated Anthraquinones with Antiangiogenic Activity from a Soil-Derived Streptomyces Species” (J Nat Prod, 2018).

Series [1] deals with HUVEC. Put plainly: Down regulation of VE-cadherin expression in VEGF-stimulated HUVEC after 6 hrs by Western blot analysis. It is filed as functional, cell-based. The settings on record: Homo sapiens. (In general: In western blotting, separated proteins are transferred to a membrane and probed.)
Series [2] relates to HUVEC. The experiment in a line: Antiinvasive activity in HUVEC assessed as inhibition of VEGF-induced cell invasion by crystal violet staining based matrigel invasion chamber assay. The class given is functional. The conditions noted are these: Homo sapiens.
The target of series [3] is Vascular endothelial growth factor receptor 2 (Homo sapiens) (UniProt P35968). Put plainly: Inhibition of VEGFR2 phosphorylation in VEGF-stimulated HUVEC after 6 hrs by Western blot analysis. It is filed as cell-based.
Vascular endothelial growth factor receptor 2 (Homo sapiens), sequence (P35968 whole entry): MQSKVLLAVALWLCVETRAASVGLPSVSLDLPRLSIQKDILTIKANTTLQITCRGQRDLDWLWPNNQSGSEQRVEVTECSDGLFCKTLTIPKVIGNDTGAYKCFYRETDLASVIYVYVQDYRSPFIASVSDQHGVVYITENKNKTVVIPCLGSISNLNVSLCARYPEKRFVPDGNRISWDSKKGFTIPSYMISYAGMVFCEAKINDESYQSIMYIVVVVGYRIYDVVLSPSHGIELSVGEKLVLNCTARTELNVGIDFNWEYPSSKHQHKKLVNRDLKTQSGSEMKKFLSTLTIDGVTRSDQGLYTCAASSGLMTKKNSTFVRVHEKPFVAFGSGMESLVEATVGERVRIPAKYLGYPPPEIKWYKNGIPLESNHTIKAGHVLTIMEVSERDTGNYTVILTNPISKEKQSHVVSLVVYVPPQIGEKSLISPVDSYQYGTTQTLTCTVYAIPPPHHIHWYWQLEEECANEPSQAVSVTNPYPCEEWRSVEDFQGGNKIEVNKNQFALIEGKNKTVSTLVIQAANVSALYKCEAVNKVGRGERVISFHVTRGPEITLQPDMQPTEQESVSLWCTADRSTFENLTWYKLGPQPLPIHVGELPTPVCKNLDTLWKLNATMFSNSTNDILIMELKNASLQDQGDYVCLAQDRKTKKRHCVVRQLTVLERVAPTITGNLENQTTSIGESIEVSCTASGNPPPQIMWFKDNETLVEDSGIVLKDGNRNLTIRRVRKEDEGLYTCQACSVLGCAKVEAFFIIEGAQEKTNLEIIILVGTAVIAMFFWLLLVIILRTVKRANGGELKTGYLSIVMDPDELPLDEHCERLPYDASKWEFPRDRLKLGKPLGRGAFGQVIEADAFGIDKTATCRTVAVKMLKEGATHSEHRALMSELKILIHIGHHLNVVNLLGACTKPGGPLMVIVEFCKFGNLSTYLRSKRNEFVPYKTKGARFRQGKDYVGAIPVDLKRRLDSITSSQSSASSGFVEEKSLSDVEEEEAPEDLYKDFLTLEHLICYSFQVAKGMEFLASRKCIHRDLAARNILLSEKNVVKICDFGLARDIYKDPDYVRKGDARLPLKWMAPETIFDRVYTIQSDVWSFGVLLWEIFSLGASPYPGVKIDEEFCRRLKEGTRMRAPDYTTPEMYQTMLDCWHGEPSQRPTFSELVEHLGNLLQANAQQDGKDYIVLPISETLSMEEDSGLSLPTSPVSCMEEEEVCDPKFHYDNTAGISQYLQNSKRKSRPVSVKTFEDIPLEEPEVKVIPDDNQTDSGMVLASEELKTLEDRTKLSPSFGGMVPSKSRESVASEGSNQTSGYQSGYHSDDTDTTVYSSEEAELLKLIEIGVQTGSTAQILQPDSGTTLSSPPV
Series [4] concerns HUVEC. Put plainly: Antiangiogenic activity in HUVEC assessed as inhibition of VEGF-induced capillary tube formation by matrigel-based microscopic analysis. It is filed as functional, cell-based. The conditions noted are these: Homo sapiens.
Series [5] concerns HUVEC. The experiment in a line: Cytotoxicity against VEGF-stimulated HUVEC at 100 uM after 24 hrs by EZ-Cytox cell viability assay. It is filed as cell-based. The settings on record: human.
For series [6], the system named is HUVEC. Put plainly: Down regulation of VE-cadherin expression in VEGF-stimulated HUVEC at 10 to 50 uM after 6 hrs by Western blot analysis. The class given is functional, cell-based. The conditions noted are these: Homo sapiens.
The test system of series [7] is HUVEC. Put plainly: Antiinvasive activity in HUVEC assessed as inhibition of VEGF-induced cell invasion at 25 uM by crystal violet staining based matrigel invasion chamber assay. It is filed as functional. The conditions noted are these: Homo sapiens.
Series [8] deals with Vascular endothelial growth factor receptor 2 (Homo sapiens) (UniProt P35968). Put plainly: Inhibition of VEGFR2 phosphorylation in VEGF-stimulated HUVEC at 10 to 50 uM after 6 hrs by Western blot analysis. The class given is cell-based.

Calls of active or inactive are those of the source. The rule behind the calls is not given here.

For `CCCc1c(C(=O)O)c(O)cc2c1C(=O)c1c(O)cc(O)cc1C2=O`, the result in the series on HUVEC [1] was inactive. Also, the inhibition entry (in the series with HUVEC [2]; in series [3]; with HUVEC [4]) was “inactive” in each case.
For the compound `CCCc1cc(O[C@@H]2O[C@@H](C)[C@H](O)[C@@H](O)[C@H]2O)cc2c1C(=O)c1c(O)cc(O)cc1C2=O`, the Activity entry in the series on HUVEC [5] is “Non-Toxic”. The result in the series with HUVEC [6] was Active. Also, the inhibition result (with HUVEC [7]; in series [8]) was “Active” in each case. The inhibition result with HUVEC [4] was “Dose-dependent effect”.
For `CCCc1cc(O[C@@H]2O[C@@H](C)[C@H](O)[C@@H](O)[C@H]2OC2O[C@H](CO)[C@@H](O)[C@H](O)[C@H]2NC(C)=O)cc2c1C(=O)c1c(O)cc(O)cc1C2=O` (some centres undefined), the Activity result in the series with HUVEC [5] is reported as “Non-Toxic”. Besides, the result in the series on HUVEC [6] was Active. Also, the inhibition result (in the series with HUVEC [7]; in series [8]) was “Active” throughout. Moreover, the inhibition result in the series with HUVEC [4] was “Dose-dependent effect”.
